Results taken from patent US11939298B1, “5-(4,5-bis(4-bromophenyl)-2-(4-chlorophenyl)-1H-imidazol-1-yl)pentanoic acid as an antimicrobial compound” (KING FAISAL UNIVERSITY, priority 2023, dated 2024).

Key:
Format in all cases: cell-based
[1] = tested on: Aspergillus flavus; assay: Agar plate disc-diffusion, antifungal, Aspergillus flavus; details: Sabouraud's dextrose agar, 37° C., 72 hours, DMSO zone subtracted; for inhibition zone, Aspergillus flavus, B: B = concentration of comp. = 30,000 μL
Description: (§1) The agar plate disc-diffusion method was applied. […] The discs were then placed onto the surface of agar plates (nutrient agar for bacteria and Sabouraud's dextrose agar for fungi) seeded with the test organism. Each plate contained 15 mL of the agar medium, previously seeded with 0.2 mL of the broth culture of each organism pregrown for 18 hours. The plates were incubated at 37° C. for 48 hours, and 72 hours for fungi. The inhibition zones was measured in mm. Discs impregnated with DMSO were used as a control, and its inhibition zone was subtracted from the tested compound actual inhibition zone.
(§2) Their antibacterial screened against gram positive bacteria namely Bacillus cereus and Staphylococcus aureus and gram-negative bacterial strains namely Pseudomonas aeruginosa and Escherichia coli, while their antifungal activity screened against Aspergillus flavus and Chrysosporium keratinophilum as shown in tables 1 and 2 using ciprofloxacin as a reference.

[2] = tested on: Staphylococcus aureus; assay: Agar plate disc-diffusion, antibacterial, Staphylococcus aureus; details: nutrient agar, 37° C., 48 hours, DMSO zone subtracted; for inhibition zone, Staphylococcus aureus, A: A = concentration of comp. = 10,000 μL
Description: as §1, §2

[3] = tested on: Escherichia coli; assay: Agar plate disc-diffusion, antibacterial, Escherichia coli; details: nutrient agar, 37° C., 48 hours, DMSO zone subtracted
Description: as §1, §2

[4] = tested on: Chrysosporium keratinophilum; assay: Agar plate disc-diffusion, antifungal, Chrysosporium keratinophilum; details: Sabouraud's dextrose agar, 37° C., 72 hours, DMSO zone subtracted
Description: The agar plate disc-diffusion method was applied. Sterilized filter papers (6 mm in diameter) were wetted with 10 μL of a solution of 5-(4,5-bis(4-bromophenyl)-2-(4-chlorophenyl)-1H-imidazol-1-yl)pentanoic acid (V) to be tested, containing 10 mg/mL in DMSO, and the discs were allowed to air dry. The discs were then placed onto the surface of agar plates (nutrient agar for bacteria and Sabouraud's dextrose agar for fungi) seeded with the test organism. Each plate contained 15 mL of the agar medium, previously seeded with 0.2 mL of the broth culture of each organism pregrown for 18 hours. The plates were incubated at 37° C. for 48 hours, and 72 hours for fungi. The inhibition zones was measured in mm. Discs impregnated with DMSO were used as a control, and its inhibition zone was subtracted from the tested compound actual inhibition zone.
as §2

[5] = tested on: Pseudomonas aeruginosa; assay: Agar plate disc-diffusion, antibacterial, Pseudomonas aeruginosa; details: nutrient agar, 37° C., 48 hours, DMSO zone subtracted
Description: as §1, §2

[6] = tested on: Bacillus cereus; assay: Agar plate disc-diffusion, antibacterial, Bacillus cereus; details: nutrient agar, 37° C., 48 hours, DMSO zone subtracted
Description: as §1, §2

[7] = A = concentration of comp. = 10,000 μL
[8] = B = concentration of comp. = 30,000 μL
[9] = C = concentration of comp. = 50,000 μL

SMILES | inhibition zone, Aspergillus flavus, B [1] [mm] | inhibition zone, Staphylococcus aureus, A [2] [mm] | inhibition zone, Escherichia coli, A [3, 7] [mm] | inhibition zone, Escherichia coli, B [3, 8] [mm] | inhibition zone, Escherichia coli, C [3, 9] [mm] | inhibition zone, Chrysosporium keratinophilum, A [4, 7] [mm] | inhibition zone, Chrysosporium keratinophilum, B [4, 8] [mm] | inhibition zone, Chrysosporium keratinophilum, C [4, 9] [mm] | inhibition zone, Aspergillus flavus, A ([1]; A = concentration of comp. = 10,000 μg/mL) [mm] | inhibition zone, Aspergillus flavus, C [1, 9] [mm] | inhibition zone, Pseudomonas aeruginosa, A ([5]; A = concentration of comp. = 10 mg/mL) [mm] | inhibition zone, Pseudomonas aeruginosa, B [5, 8] [mm] | inhibition zone, Pseudomonas aeruginosa, C [5, 9] [mm] | inhibition zone, Staphylococcus aureus, B [2, 8] [mm] | inhibition zone, Staphylococcus aureus, C [2, 9] [mm] | inhibition zone, Bacillus Cereus, A [6, 7] [mm] | inhibition zone, Bacillus Cereus, B [6, 8] [mm] | inhibition zone, Bacillus Cereus, C [6, 9] [mm]
O=C(O)c1cn(C2CC2)c2cc(N3CCNCC3)c(F)cc2c1=O [Cip., ciprofloxacin, reference compound] | 32 | 42 |  |  |  |  |  |  |  |  |  |  |  |  |  |  |  | 
O=C(O)CCCCn1c(-c2ccc(Cl)cc2)nc(-c2ccc(Br)cc2)c1-c1ccc(Br)cc1 [V, 5-(4,5-bis(4-bromophenyl)-2-(4-chlorophenyl)-1H-imidazol-1-yl)pentanoic acid] | 23 | 16 | 28 | 36 | 51 | 26 | 27 | 44 | 18 | 31 | 24 | 30 | 44 | 21 | 29 | 24 | 26 | 38
